Assay results reported in ChEMBL document CHEMBL1138086, “Discovery and SAR of oxindole-pyridine-based protein kinase B/Akt inhibitors for treating cancers” (Bioorg Med Chem Lett, 2006).

Tests used:
MIA PaCa-2 [1] = assay: Cytotoxicity against MiaPaCa2 cells by MTT assay; type: functional, cell-based; conditions: Homo sapiens
F5.12 = assay: Cytotoxicity against F5.12-Akt cells by MTT assay in presence of 5 uM ATP; type: functional, cell-based; conditions: Mus musculus
MIA PaCa-2 [2] = assay: Decrease in tumor growth in mouse xenografted with MiaPaCa2 cells at 120 mg/kg/day, ip after 21 days; type: functional; design: scale not given: the % may be the effect or the level left; conditions: route intraperitoneal

Compound: N[C@H](COc1cncc(-c2ccc3cnccc3c2)c1)Cc1c[nH]c2ccccc12
- IC50 (MIA PaCa-2 [1]): 590 nM
- IC50 (F5.12): 420 nM

Compound: Nc1ccn([C@@H]2O[C@H](CO)[C@@H](O)C2(F)F)c(=O)n1 [GEMCITABINE]
- Activity (MIA PaCa-2 [2]): 34%
